Reference: paper PMC5999327 (Organic letters, 2018)

Tests used:
HDAC1 = HDAC1 (Homo sapiens, UniProt Q13547); assay: biochemical HDAC assay with ZMAL substrate, HDAC1; conditions: read-out: HDAC1 IC50
Cal27 cells [1] = assay: whole cell HDAC assay with Boc-Lys; type: cell-based; conditions: Homo sapiens, CAL-27, read-out: HDAC (Cal27) IC50
Cal27 cells [2] = assay: MTT cytotoxicity assay; type: cell-based; conditions: Homo sapiens, CAL-27, read-out: MTT (Cal27) IC50
Cal27 cells [3] = assay: western blotting of α-tubulin and histone H3 acetylation in Cal27; type: cell-based, human; conditions: western blot, Cal27, compared to control

Sequence of HDAC1 (Q13547 whole entry): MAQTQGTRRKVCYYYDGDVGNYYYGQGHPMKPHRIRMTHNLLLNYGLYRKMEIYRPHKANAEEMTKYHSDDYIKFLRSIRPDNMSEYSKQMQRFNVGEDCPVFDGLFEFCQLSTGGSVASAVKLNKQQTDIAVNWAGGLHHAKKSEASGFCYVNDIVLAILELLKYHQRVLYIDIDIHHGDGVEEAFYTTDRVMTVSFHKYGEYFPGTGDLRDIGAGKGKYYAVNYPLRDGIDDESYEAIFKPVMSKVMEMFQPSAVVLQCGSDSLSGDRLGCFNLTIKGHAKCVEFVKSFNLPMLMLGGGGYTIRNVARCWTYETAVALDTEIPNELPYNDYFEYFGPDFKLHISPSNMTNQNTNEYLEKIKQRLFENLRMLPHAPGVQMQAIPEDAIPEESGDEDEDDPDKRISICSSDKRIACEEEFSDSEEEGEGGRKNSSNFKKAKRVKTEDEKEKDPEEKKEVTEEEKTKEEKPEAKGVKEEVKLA

IC50 (HDAC1) [µM]	IC50 (Cal27 cells [1]) [µM]	SMILES	IC50 (Cal27 cells [2]) [µM]	acetylation of α-tubulin (Cal27 cells [3])	acetylation of histone H3 (Cal27 cells [3])
2.1		O=C(NO)c1ccc(CC(=O)N(CCO)c2ccccc2)cc1 [HPOB]			
	5.87	CCCCN(Cc1ccc(C(=O)NO)cc1)C(=O)Nc1ccccc1 [Nexturastat A]	7.75		
	11.4	CN1CCc2c(c3ccccc3n2Cc2ccc(C(=O)NO)cc2)C1 [Tubastatin A]	5.34	preferential hyperacetylation of α-tubulin	
		O=C(CCCCCCC(=O)Nc1ccccc1)NO [vorinostat]		increase in acetylation	increase in acetylation
